# Results published in US20170050957A1, “4-AMINO-6-(HETEROCYCLIC)PICOLINATES AND 6-AMINO-2-(HETEROCYCLIC)PYRIMIDINE-4-CARBOXYLATES AND THEIR USE AS HERBICIDES” (Dow AgroSciences LLC, priority 2013, published 2017).
# Legend:
# [1] = system: sunflower (Helianthus annuus); experiment: Pre-emergent Test I herbicidal activity; type: in vivo
# Method: Pre-emergent Test I Seeds of test species were planted into round plastic pots (5-inch diameter) containing sandy loam soil. After planting, all pots were sub-irrigated 16 h prior to compound application. Compounds were dissolved in a 97:3 v/v (volume/volume) mixture of acetone and dimethyl sulfoxide (DMSO) and diluted to the appropriate concentration in a final application solution containing water, acetone, isopropanol, DMSO and Agri-dex (crop oil concentrate) in a 59:23:15:1.0:1.5 v/v ratio and 0.02% w/v (weight/volume) of Triton X-155 to obtain the spray solution containing the highest application rate. The high application rate was serial diluted with the above application solution to provide delivery of the compound at rates 1/2×, 1/4× and 1/8× of the highest rate (equivalent to 4.0, 2.0, 1.0, and 0.5 kg/ha, respectively). Formulated compound (2.7 mL) was applied pipetted evenly over the soil surface followed by incorporation with water (15 mL). Following treatment, pots were returned to the greenhouse for the duration of the experiment. The greenhouse was programmed for an approximate 15 h photoperiod which was maintained at about 23-29° C. during the day and 22-28° C. during the night. Nutrients and water were added on a regular basis through surface irrigation and supplemental lighting was provided with overhead metal halide 1000-Watt lamps as necessary. Herbicidal effect ratings were obtained 14 days after treatment. All evaluations were made relative to appropriate controls on a scale of 0 to 100 where 0 represents no herbicidal effect and 100 represents plant death or lack of emergence from the soil.
# [2] = system: Wheat and Barley and test plant species; experiment: Post-emergent Test III, herbicidal activity in wheat and barley (Table 17; visual injury, GR20/GR50/GR80/GR90); type: in vivo; conditions: 21 d; for Visual Growth Reduction (%) 21 Days After Application, CIRAR / Visual Growth Reduction (%) 21 Days After Application, GALAP / Visual Growth Reduction (%) 21 Days After Application, HORVS / Visual Growth Reduction (%) 21 Days After Application, KCHSC / Visual Growth Reduction (%) 21 Days After Application, LAMPU / Visual Growth Reduction (%) 21 Days After Application, MATCH / Visual Growth Reduction (%) 21 Days After Application, PAPRH / Visual Growth Reduction (%) 21 Days After Application, SASKR / Visual Growth Reduction (%) 21 Days After Application, SINAR / Visual Growth Reduction (%) 21 Days After Application, TRZAS / Visual Growth Reduction (%) 21 Days After Application, VERPE / Visual Growth Reduction (%) 21 Days After Application, VIOTR: post-emergent
# Method: Post-emergent Test III. Seeds of the desired test plant species were planted in Sun Gro MetroMix® 306 planting mixture, which typically has a pH of 6.0 to 6.8 and an organic matter content of about 30 percent, in plastic pots with a surface area of 103.2 square centimeters (cm^2). When required to ensure good germination and healthy plants, a fungicide treatment and/or other chemical or physical treatment was applied. The plants were grown for 7-36 days (d) in a greenhouse with an approximate 14 hour (h) photoperiod which was maintained at about 18° C. during the day and 17° C. during the night. Nutrients and water were added on a regular basis and supplemental lighting was provided with overhead metal halide 1000-Watt lamps as necessary. The plants were employed for testing when they reached the second or third true leaf stage.
# A weighed amount, determined by the highest rate to be tested, of each test compound was placed in a 25 mL glass vial and was dissolved in 4 mL of a 97:3 v/v mixture of acetone and DMSO to obtain concentrated stock solutions. […] The concentrated stock solutions obtained were diluted with 20 mL of an aqueous mixture containing acetone, water, isopropyl alcohol, DMSO, Agri-Dex crop oil concentrate, and X-77 surfactant in a 48:39:10:1.5:1.5:0.02 v/v ratio to obtain spray solutions containing the highest application rates. Additional application rates were obtained by serial dilution of 12 mL of the high rate solution into a solution containing 2 mL of 97:3 v/v mixture of acetone and DMSO and 10 mL of an aqueous mixture containing acetone, water, isopropyl alcohol, DMSO, Agri-Dex crop oil concentrate, and X-77 surfactant in a 48:39:10:1.5:1.5:0.02 v/v ratio to obtain 1/2×, 1/4×, 1/8× and 1/16× rates of the high rate. Compound requirements are based upon a 12 mL application volume at a rate of 187 liters per hectare (L/ha). Formulated compounds were applied to the plant material with an overhead Mandel track sprayer equipped with 8002E nozzles calibrated to deliver 187 L/ha over an application area of 0.503 square meters at a spray height of 18 inches (43 cm) above the average plant canopy height. Control plants were sprayed in the same manner with the solvent blank.
# The treated plants and control plants were placed in a greenhouse as described above and watered by subirrigation to prevent wash-off of the test compounds. After 21 d, the condition of the test plants as compared with that of the untreated plants was determined visually and scored on a scale of 0 to 100 percent where 0 corresponds to no injury and 100 corresponds to complete kill. By applying the well-accepted probit analysis as described by J. Berkson in Journal of the American Statistical […], 48, 565 (1953) and by D. Finney in “Probit Analysis” Cambridge University Press (1952), the above data can be used to calculate GR20, GR50, GR80 and GR90 values, which are defined as growth reduction factors that correspond to the effective dose of herbicide required to kill or control 20 percent, 50 percent, 80 percent or 90 percent, respectively, of a target plant.
smiles,measurement,setting,value
COC(=O)c1nc(-c2ccc3ccn(C)c3c2)c(F)c(N)c1Cl [Compound 1.10],Visual Growth Reduction (%) 14 Days After Application HELAN,[1]; 3.96 Kg ai/ha,G (0-29)
Nc1c(F)c(-c2cccc3cc[nH]c23)nc(C(=O)O)c1Cl [Compound 1.48],Visual Growth Reduction (%) 14 Days After Application HELAN,[1]; 4 Kg ai/ha,C (75-84)
COC(=O)c1nc(-c2ccc(Cl)c3ccoc23)c(F)c(N)c1Cl [Compound 2.24],"Visual Growth Reduction (%) 21 Days After Application, CIRAR","[2]; CIRAR, 17.5 g ai/ha",D (60-74)
same,"Visual Growth Reduction (%) 21 Days After Application, CIRAR","[2]; CIRAR, 35 g ai/ha",C (75-84)
same,"Visual Growth Reduction (%) 21 Days After Application, CIRAR","[2]; CIRAR, 70 g ai/ha",B (85-94)
same,"GR50, CIRAR","[2]; CIRAR, dose for 50 percent growth reduction, probit analysis",14 g ai/ha
same,"GR80, CIRAR","[2]; CIRAR, dose for 80 percent growth reduction, probit analysis",35 g ai/ha
same,"GR90, CIRAR","[2]; CIRAR, dose for 90 percent growth reduction, probit analysis",57 g ai/ha
same,"Visual Growth Reduction (%) 21 Days After Application, GALAP","[2]; GALAP, 17.5 g ai/ha",D (60-74)
same,"Visual Growth Reduction (%) 21 Days After Application, GALAP","[2]; GALAP, 35 g ai/ha",B (85-94)
same,"Visual Growth Reduction (%) 21 Days After Application, GALAP","[2]; GALAP, 70 g ai/ha",B (85-94)
same,"GR50, GALAP","[2]; GALAP, dose for 50 percent growth reduction, probit analysis",7 g ai/ha
same,"GR80, GALAP","[2]; GALAP, dose for 80 percent growth reduction, probit analysis",23 g ai/ha
same,"GR90, GALAP","[2]; GALAP, dose for 90 percent growth reduction, probit analysis",44 g ai/ha
same,"Visual Growth Reduction (%) 21 Days After Application, HORVS","[2]; HORVS, 17.5 g ai/ha",G (0-29)
same,"Visual Growth Reduction (%) 21 Days After Application, HORVS","[2]; HORVS, 35 g ai/ha",G (0-29)
same,"Visual Growth Reduction (%) 21 Days After Application, HORVS","[2]; HORVS, 70 g ai/ha",G (0-29)
same,"GR20, HORVS","[2]; HORVS, dose for 20 percent growth reduction, probit analysis",66 g ai/ha
same,"Visual Growth Reduction (%) 21 Days After Application, KCHSC","[2]; KCHSC, 17.5 g ai/ha",D (60-74)
same,"Visual Growth Reduction (%) 21 Days After Application, KCHSC","[2]; KCHSC, 35 g ai/ha",C (75-84)
same,"Visual Growth Reduction (%) 21 Days After Application, KCHSC","[2]; KCHSC, 70 g ai/ha",B (85-94)
same,"GR50, KCHSC","[2]; KCHSC, dose for 50 percent growth reduction, probit analysis",4 g ai/ha
same,"GR80, KCHSC","[2]; KCHSC, dose for 80 percent growth reduction, probit analysis",33 g ai/ha
same,"GR90, KCHSC","[2]; KCHSC, dose for 90 percent growth reduction, probit analysis",103 g ai/ha
same,"Visual Growth Reduction (%) 21 Days After Application, LAMPU","[2]; LAMPU, 17.5 g ai/ha",E (45-59)
same,"Visual Growth Reduction (%) 21 Days After Application, LAMPU","[2]; LAMPU, 35 g ai/ha",D (60-74)
same,"Visual Growth Reduction (%) 21 Days After Application, LAMPU","[2]; LAMPU, 70 g ai/ha",C (75-84)
same,"GR50, LAMPU","[2]; LAMPU, dose for 50 percent growth reduction, probit analysis",15 g ai/ha
same,"GR80, LAMPU","[2]; LAMPU, dose for 80 percent growth reduction, probit analysis",93 g ai/ha
same,"GR90, LAMPU","[2]; LAMPU, dose for 90 percent growth reduction, probit analysis",>140 g ai/ha
same,"Visual Growth Reduction (%) 21 Days After Application, MATCH","[2]; MATCH, 17.5 g ai/ha",G (0-29)
same,"Visual Growth Reduction (%) 21 Days After Application, MATCH","[2]; MATCH, 35 g ai/ha",G (0-29)
same,"Visual Growth Reduction (%) 21 Days After Application, MATCH","[2]; MATCH, 70 g ai/ha",G (0-29)
same,"GR50, MATCH","[2]; MATCH, dose for 50 percent growth reduction, probit analysis",114 g ai/ha
same,"GR80, MATCH","[2]; MATCH, dose for 80 percent growth reduction, probit analysis",>140 g ai/ha
same,"GR90, MATCH","[2]; MATCH, dose for 90 percent growth reduction, probit analysis",>140 g ai/ha
same,"Visual Growth Reduction (%) 21 Days After Application, PAPRH","[2]; PAPRH, 17.5 g ai/ha",D (60-74)
same,"Visual Growth Reduction (%) 21 Days After Application, PAPRH","[2]; PAPRH, 35 g ai/ha",D (60-74)
same,"Visual Growth Reduction (%) 21 Days After Application, PAPRH","[2]; PAPRH, 70 g ai/ha",C (75-84)
same,"GR50, PAPRH","[2]; PAPRH, dose for 50 percent growth reduction, probit analysis",24 g ai/ha
same,"GR80, PAPRH","[2]; PAPRH, dose for 80 percent growth reduction, probit analysis",52 g ai/ha
same,"GR90, PAPRH","[2]; PAPRH, dose for 90 percent growth reduction, probit analysis",77 g ai/ha
same,"Visual Growth Reduction (%) 21 Days After Application, SASKR","[2]; SASKR, 17.5 g ai/ha",D (60-74)
same,"Visual Growth Reduction (%) 21 Days After Application, SASKR","[2]; SASKR, 35 g ai/ha",B (85-94)
same,"Visual Growth Reduction (%) 21 Days After Application, SASKR","[2]; SASKR, 70 g ai/ha",B (85-94)
same,"GR50, SASKR","[2]; SASKR, dose for 50 percent growth reduction, probit analysis",3 g ai/ha
same,"GR80, SASKR","[2]; SASKR, dose for 80 percent growth reduction, probit analysis",28 g ai/ha
same,"GR90, SASKR","[2]; SASKR, dose for 90 percent growth reduction, probit analysis",95 g ai/ha
same,"Visual Growth Reduction (%) 21 Days After Application, SINAR","[2]; SINAR, 17.5 g ai/ha",B (85-94)
same,"Visual Growth Reduction (%) 21 Days After Application, SINAR","[2]; SINAR, 35 g ai/ha",A (95-100)
same,"Visual Growth Reduction (%) 21 Days After Application, SINAR","[2]; SINAR, 70 g ai/ha",A (95-100)
same,"GR50, SINAR","[2]; SINAR, dose for 50 percent growth reduction, probit analysis",6 g ai/ha
same,"GR80, SINAR","[2]; SINAR, dose for 80 percent growth reduction, probit analysis",13 g ai/ha
same,"GR90, SINAR","[2]; SINAR, dose for 90 percent growth reduction, probit analysis",19 g ai/ha
same,"Visual Growth Reduction (%) 21 Days After Application, TRZAS","[2]; TRZAS, 17.5 g ai/ha",G (0-29)
same,"Visual Growth Reduction (%) 21 Days After Application, TRZAS","[2]; TRZAS, 35 g ai/ha",G (0-29)
same,"Visual Growth Reduction (%) 21 Days After Application, TRZAS","[2]; TRZAS, 70 g ai/ha",F (30-44)
same,"GR20, TRZAS","[2]; TRZAS, dose for 20 percent growth reduction, probit analysis",52 g ai/ha
same,"Visual Growth Reduction (%) 21 Days After Application, VERPE","[2]; VERPE, 17.5 g ai/ha",F (30-44)
same,"Visual Growth Reduction (%) 21 Days After Application, VERPE","[2]; VERPE, 35 g ai/ha",D (60-74)
same,"Visual Growth Reduction (%) 21 Days After Application, VERPE","[2]; VERPE, 70 g ai/ha",C (75-84)
same,"GR50, VERPE","[2]; VERPE, dose for 50 percent growth reduction, probit analysis",30 g ai/ha
same,"GR80, VERPE","[2]; VERPE, dose for 80 percent growth reduction, probit analysis",66 g ai/ha
same,"GR90, VERPE","[2]; VERPE, dose for 90 percent growth reduction, probit analysis",100 g ai/ha
same,"Visual Growth Reduction (%) 21 Days After Application, VIOTR","[2]; VIOTR, 17.5 g ai/ha",E (45-59)
same,"Visual Growth Reduction (%) 21 Days After Application, VIOTR","[2]; VIOTR, 35 g ai/ha",D (60-74)
same,"Visual Growth Reduction (%) 21 Days After Application, VIOTR","[2]; VIOTR, 70 g ai/ha",C (75-84)
same,"GR50, VIOTR","[2]; VIOTR, dose for 50 percent growth reduction, probit analysis",24 g ai/ha
same,"GR80, VIOTR","[2]; VIOTR, dose for 80 percent growth reduction, probit analysis",78 g ai/ha
same,"GR90, VIOTR","[2]; VIOTR, dose for 90 percent growth reduction, probit analysis",>140 g ai/ha
COC(=O)c1nc(-c2ccc3sccc3c2)cc(N)c1Cl [Compound 3.05],Visual Growth Reduction (%) 14 Days After Application HELAN,[1]; 4 Kg ai/ha,F (30-44)
